In one assay the target is T1, NURR-1/RXRα (Homo sapiens, UniProt P19793).
T1 construct: expressed in transfected cells; host or cells: Cos-7 cells
The assay can be described thus: Transactivation test, NURR-1-Gal4/RXRα, luciferase reporter in Cos-7 cells. It is filed as cell-based. Conditions: for Emax: COS-7, induction level relative to reference XCT0135908 at 2×10^−5 M (=100%), read-out: hNurr1_RXRaFL Emax (%); for EC50: Cos-7 cells, NURR-1-Gal4/RXRα, luciferase reporter, read-out: hNurr1_RXRaFL EC50. In general terms: Reporter assays use an easily measured gene product as a stand-in for the process of interest.

Another assay concerns the target T2, NURR-1/RXRγ (Homo sapiens, UniProt P48443).
T2 construct: expressed in transfected cells; host or cells: Cos-7 cells
The assay can be described thus: Transactivation test, NURR-1-Gal4/RXRγ, luciferase reporter in Cos-7 cells. It is filed as cell-based. Conditions: for Emax: COS-7, induction level relative to reference XCT0135908 at 2×10^−5 M (=100%), read-out: hNurr1_RXRgFL Emax (%); for EC50: Cos-7 cells, NURR-1-Gal4/RXRγ, luciferase reporter, read-out: hNurr1_RXRgFL EC50.

[1] abbreviates: induction level relative to reference XCT0135908 at 2×10^−5 M (=100%).

Molecules are shown by their SMILES.

What is called Emax is the size of the effect at its maximum, as opposed to the concentration needed. As usually defined, the EC50 is the midpoint of the concentration-response curve.

T1 sequence (P19793 whole entry): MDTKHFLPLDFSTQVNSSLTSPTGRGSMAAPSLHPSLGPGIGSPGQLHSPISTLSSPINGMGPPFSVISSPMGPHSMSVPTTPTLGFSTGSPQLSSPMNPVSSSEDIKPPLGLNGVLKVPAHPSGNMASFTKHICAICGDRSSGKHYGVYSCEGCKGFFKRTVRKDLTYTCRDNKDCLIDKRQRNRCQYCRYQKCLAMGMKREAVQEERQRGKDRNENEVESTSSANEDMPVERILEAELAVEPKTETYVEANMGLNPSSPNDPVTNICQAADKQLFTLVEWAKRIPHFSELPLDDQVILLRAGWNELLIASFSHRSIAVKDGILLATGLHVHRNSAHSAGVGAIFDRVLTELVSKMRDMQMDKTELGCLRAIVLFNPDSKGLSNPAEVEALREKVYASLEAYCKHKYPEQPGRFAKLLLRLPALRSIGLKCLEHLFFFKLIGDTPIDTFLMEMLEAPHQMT
T1 sequence (P43354 whole entry partner): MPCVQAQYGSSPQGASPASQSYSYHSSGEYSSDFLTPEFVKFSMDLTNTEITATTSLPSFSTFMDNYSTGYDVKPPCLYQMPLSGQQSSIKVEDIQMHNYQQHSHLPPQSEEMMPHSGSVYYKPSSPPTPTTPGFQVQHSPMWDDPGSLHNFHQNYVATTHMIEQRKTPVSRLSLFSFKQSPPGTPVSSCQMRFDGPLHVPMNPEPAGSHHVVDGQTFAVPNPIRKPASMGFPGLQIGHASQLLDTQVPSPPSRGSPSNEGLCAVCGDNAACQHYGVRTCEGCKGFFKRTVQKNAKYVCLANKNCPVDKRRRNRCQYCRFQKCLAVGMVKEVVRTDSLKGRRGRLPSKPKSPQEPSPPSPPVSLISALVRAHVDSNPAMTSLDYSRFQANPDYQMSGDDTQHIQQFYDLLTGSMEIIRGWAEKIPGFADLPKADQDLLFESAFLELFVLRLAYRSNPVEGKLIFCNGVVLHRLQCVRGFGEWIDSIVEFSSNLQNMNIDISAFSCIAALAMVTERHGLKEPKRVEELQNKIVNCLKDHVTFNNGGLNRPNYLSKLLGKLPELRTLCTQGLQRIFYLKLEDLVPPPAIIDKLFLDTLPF
T1 sequence (P04386 1-147 partner limits assumed): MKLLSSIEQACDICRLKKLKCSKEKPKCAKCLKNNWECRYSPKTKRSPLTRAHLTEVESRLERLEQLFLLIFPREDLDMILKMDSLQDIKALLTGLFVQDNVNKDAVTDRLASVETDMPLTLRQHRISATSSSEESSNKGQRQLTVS
T2 sequence (P48443 whole entry): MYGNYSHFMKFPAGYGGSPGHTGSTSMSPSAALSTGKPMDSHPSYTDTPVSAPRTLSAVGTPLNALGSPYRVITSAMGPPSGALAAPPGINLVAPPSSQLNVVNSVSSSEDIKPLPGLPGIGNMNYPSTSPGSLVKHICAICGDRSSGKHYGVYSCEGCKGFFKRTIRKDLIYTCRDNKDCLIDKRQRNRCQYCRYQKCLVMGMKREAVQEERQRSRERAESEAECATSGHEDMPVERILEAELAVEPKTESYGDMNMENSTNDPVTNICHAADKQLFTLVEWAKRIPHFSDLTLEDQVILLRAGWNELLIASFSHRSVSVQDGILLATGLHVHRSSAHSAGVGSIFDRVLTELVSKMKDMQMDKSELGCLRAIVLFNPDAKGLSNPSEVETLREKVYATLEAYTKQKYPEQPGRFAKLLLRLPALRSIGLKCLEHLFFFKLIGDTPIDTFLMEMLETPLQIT
T2 sequence (P43354 whole entry partner): as the sequence (P43354 whole entry partner) above
T2 sequence (P04386 1-147 partner limits assumed): as the sequence (P04386 1-147 partner limits assumed) above

With `CCCCNC(=O)C1CN(c2cccc(-n3cc(C)c4cc(C(F)(F)F)ccc43)c2)C1` [Example 169, N-butyl-1-[3-[3-methyl-5-(trifluoromethyl)indol-1-yl]phenyl]azetidine-3-carboxamide], at NURR-1/RXRα, the Emax was 109% and the EC50 came to 0.013 µM. In addition, on NURR-1/RXRγ, the Emax is 149% and the EC50 amounted to 0.026 µM.
In the case of `Cc1cn(-c2cccc(N3CC(C(=O)NCCN4CCOCC4)C3)c2)c2ccc(C(F)(F)F)cc12` [Example 170, 1-[3-[3-methyl-5-(trifluoromethyl)indol-1-yl]phenyl]-N-(2-morpholinoethyl)azetidine-3-carboxamide], on NURR-1/RXRα, the Emax came to 100% and the EC50 is 0.027 µM. In addition, at NURR-1/RXRγ, the Emax worked out at 90% and the EC50 was determined as 0.032 µM.
As for `Cc1cn(-c2cccc(N3CC(C(=O)NC(C)(C)C)C3)c2)c2ccc(C(F)(F)F)cc12` [Example 171, N-tert-butyl-1-[3-[3-methyl-5-(tirfluoromethyl)indol-1-yl]phenyl]azetidine-3-carboxamide], the Emax on NURR-1/RXRα came out at 111%; on NURR-1/RXRγ, 114%. The values for the EC50 on NURR-1/RXRα and on NURR-1/RXRγ were 0.073 µM and 0.335 µM, respectively.
For `COCCCNC(=O)C1CN(c2cccc(-n3cc(C)c4cc(C(F)(F)F)ccc43)c2)C1` [Example 172, N-(3-methoxvpypropyl)-1-[3-[3-methyl-5-(trifluoromethyl)indol-1-yl]phenyl]azetidine-3-carboxamide], on NURR-1/RXRα, the Emax amounted to 104% and the EC50 is less than 0.001 µM. On NURR-1/RXRγ, the Emax was found to be 114% and the EC50 turned out to be 0.005 µM.
Consider `Cc1cn(-c2cccc(N3CC(C(=O)NCCCN(C)C)C3)c2)c2ccc(C(F)(F)F)cc12` [Example 174, N-[3-(dimethylamino)propyl]-1-[3-[3-methyl-5-(trifluoromethyl)indol-1-yl]phenyl]-azetidine-3-carboxamide], for which, on NURR-1/RXRα, the Emax was 91% and the EC50 was determined as 0.341 µM. On NURR-1/RXRγ, the Emax was determined as 95% and the EC50 came to 0.62 µM.
Turning to `Cc1cn(-c2cccc(N3CC(C(=O)NCCCCN(C)C)C3)c2)c2ccc(C(F)(F)F)cc12` [Example 175, N-[4-(dimethylamino)butyl]-1-[3-[3-methyl-5-(trifluoromethyl)indol-1yl]phenyl]-azatidine-3-carboxamide], on NURR-1/RXRα, the Emax stood at 77% and the EC50 is 0.647 µM. On NURR-1/RXRγ, the Emax was determined as 84% and the EC50 was determined as 1.26 µM.
In the case of `Cc1cn(-c2cccc(N3CC(C(=O)NCCN4CCNC4=O)C3)c2)c2ccc(C(F)(F)F)cc12` [Example 176, 1-[3-[3-methyl-5-(trifluoromethyl)indol-1-yl]-phenyl]N-[2-(2-oximidazolidin-1-yl)ethyl]azetidine-3-carboxamide], the Emax at NURR-1/RXRα came to 113%; on NURR-1/RXRγ, 130%. Moreover, the EC50 was 0.012 µM at NURR-1/RXRα and 0.028 µM at NURR-1/RXRγ.
Take `Cc1cn(-c2cccc(N3CC(C(=O)NCC4CC4)C3)c2)c2ccc(C(F)(F)F)cc12` [Example 177, N-(cyclopropylmethyl)-1-[3-[3-methyl-5-(trifluoromethyl)indol-1-yl]phenyl]azetidine-3-carboxamide]: at NURR-1/RXRα, the Emax is 104% and the EC50 stood at 0.007 µM. Besides, at NURR-1/RXRγ, the Emax was 109% and the EC50 amounted to 0.01 µM.
In the case of `Cc1cn(-c2cccc(N3CC(C(=O)NCC(F)(F)F)C3)c2)c2ccc(C(F)(F)F)cc12` [Example 178, 1-[3-[3-methyl-5-(trifluoromethyl)indol-1-yl]phenyl]-N-(2,2,2-trifluoromethyl)azetidine-3-carboxamide], at NURR-1/RXRα, the Emax is 115% and the concentration giving a half-maximal response (EC50) came to 0.014 µM. Besides, at NURR-1/RXRγ, the Emax is 133% and the EC50 was 0.146 µM.
Turning to `Cc1cn(-c2cccc(N3CC(C(=O)NC4CCC4)C3)c2)c2ccc(C(F)(F)F)cc12` [Example 179], at NURR-1/RXRα, the Emax was 119% and the EC50 was found to be 0.008 µM. On NURR-1/RXRγ, the Emax was 144% and the EC50 is 0.012 µM.
The matching figures for `Cc1cn(-c2cccc(N3CC(C(=O)NC4CCOCC4)C3)c2)c2ccc(C(F)(F)F)cc12` [Example 180, 1-[3-[3-methyl-5-(trifluorometnyl)indol-1-yl]phenyl]-N-tetrahydropyran-4-yl-azetidine-3-carboxamide]: 103%, 0.054 µM, 110% and 0.086 µM.
For the compound `Cc1cn(-c2cccc(N3CC(C(=O)NCCN4CCN(C)CC4)C3)c2)c2ccc(C(F)(F)F)cc12` [Example 181, N-[2-(4-methylipiperazin-1-yl)ethyl]-1-[3-[3-methyl-5-(trifluoromethyl)indol-1-yl]phenyl]azetidine-3-carboxamide], on NURR-1/RXRα, the maximum response (Emax) was 103% and the EC50 was determined as 0.168 µM. For the same compound, at NURR-1/RXRγ, the Emax is 96% and the EC50 worked out at 0.293 µM.
The matching figures for `CC(=O)NCCCNC(=O)C1CN(c2cccc(-n3cc(C)c4cc(C(F)(F)F)ccc43)c2)C1` [Example 182, N-(3-acetamidopropyl)-1-[3-[3-methyl-5-(trifluoromethyl)indol-1-yl]phenyl]azetidine-3-carboxylate]: 98%, 0.007 µM, 111% and 0.014 µM.
With `Cc1cn(-c2cccc(N3CC(C(=O)NC4CCC(F)(F)CC4)C3)c2)c2ccc(C(F)(F)F)cc12` [Example 183, N-(4,4-difluorocyclophexyl)-1-[3-[3-5-(trifluoromethyl)indol-1-yl]phenyl]-azetidine-3-carboxamide], at NURR-1/RXRα, the Emax amounted to 108% and the EC50 was 0.092 µM. In addition, on NURR-1/RXRγ, the Emax was 127% and the EC50 came out at 0.316 µM.
With `CCCc1ccc(C(C)C)cc1-c1cccc(N2CC(C(=O)O)C2)c1` [Example 195, piperazin-1-ium-1-[3-(5-isopropyl-2-propylphenyl)phenyl]azetidine-3-carboxylate], at NURR-1/RXRα, the Emax came to 105% and the EC50 was 0.007 µM. For the same compound, at NURR-1/RXRγ, the EC50 came out at 0.116 µM.
In the case of `CN1CC2(CCC2)Oc2cc(C(F)(F)F)cc(-c3cccc(N4CC(C(=O)O)C4)c3)c21` [Example 203, sodium 1-[3-[4-methul-7-(trifluoromethyl)spiro[3H-1,4-benzoxazine-2,1′-cyclobutane]-5-yl]phenyl]azetidine-3-carboxylate], at NURR-1/RXRα, the Emax is 80% and the EC50 was found to be 0.00069 µM. Moreover, on NURR-1/RXRγ, the Emax came to 63% and the EC50 is 0.004 µM.
For `CCc1cc2c(c(-c3cccc(N4CC(C(=O)O)C4)c3)c1)NCC(C)(C)O2` [Example 207, tert-butylammonium 1-[3-(7-ethyl-2,2-dimethyl-3,4-dihydro-1,4-benzoxazin-5-yl)phenyl]azetidine-3-carboxylate], at NURR-1/RXRα, the Emax was determined as 112% and the 50% effective concentration (EC50) turned out to be 0.015 µM. Besides, at NURR-1/RXRγ, the Emax is 103% and the EC50 came out at 0.016 µM.
On the same counts, the results for `CC1(C)CN(c2cccc(N3CC(C(=O)O)C3)c2)c2ccc(Br)cc2O1` [Example 222, sodium 1-[3-(7-bromo-2,2-dimethyl-3H-1,4-benzoxazin-4-yl)phenyl]azetidine-3-carbxoylate] are 115%, 0.019 µM, 94% and 0.027 µM.
The matching figures for `CC(C)Cc1ccc2c(c1)OC(C)(C)CN2c1cccc(N2CC(C(=O)O)C2)c1` [Example 230, 1-[3-(7-isobutyl-2,2-dimethyl-3H-1,4-benzoxazin-4yl)phenyl]azetidine-3-carboxylic acid]: 62%, 0.535 µM, 85% and 1 µM.
Turning to `CC(C)Cc1ccc2c(c1)OC(C)(C)CN2c1cccc(N2CC(C(=O)O)C2)c1` [Example 231, tert-butylammonium 1-[3-(7-isobutyl-2,2-dimethyl-3H-1,4-benzoxazin-4yl)phenyl]azetidine-3-carboxylate], the EC50 came to 0.318 µM at NURR-1/RXRα and 0.792 µM at NURR-1/RXRγ. Further, the “hNurr1_RXRaFL Emax (%)” value on NURR-1/RXRα (setting [1]) was found to be 58%. The “hNurr1_RXRgFL Emax (%)” value on NURR-1/RXRγ (setting [1]) worked out at 66%.
Turning to `O=C(O)C1CN(c2cccc(N3CCOc4cc(C(F)(F)F)ncc43)c2)C1` [Example 240, sodium 1-[3-[7-(trifluoromethyl)-2,3-dihydropurido[4,3][1,4]oxazin-4-yl]phenyl]azetidine-3-carboxylate], at NURR-1/RXRα, the Emax turned out to be 98% and the half-maximal effective concentration (EC50) was 1.83 µM. Also, at NURR-1/RXRγ, the maximum response (Emax) worked out at 83% and the EC50 came to 3.26 µM.
As for `O=C(O)C1CN(c2cccc(N3CC4(CCCC4)c4cc(Cl)ccc43)c2)C1` [Example 257, tert-butylammonium 1-[3-(5′-chlorospiro[cyclopentane-1,3′-indolin]-1′-yl)phenyl]azetidine-3-carboxyate], on NURR-1/RXRα, the Emax is 103% and the EC50 is 0.023 µM. Moreover, on NURR-1/RXRγ, the Emax was found to be 89% and the EC50 was 0.059 µM.
As to `CCC1(CC)C=C(c2cccc(N3CC(C(=O)O)C3)c2)c2ccc(C(F)(F)F)cc2O1` [Example 265], at NURR-1/RXRα, the Emax worked out at 79% and the EC50 stood at 0.003 µM. In addition, at NURR-1/RXRγ, the Emax was found to be 79% and the EC50 was 0.008 µM.
For the compound `CN(C)CCOC(=O)C1CN(c2cccc(N3CC(C)(C)Oc4cc(C(F)(F)F)ccc43)c2)C1` [Example 272, 2-dimethylaminoethyl 1-[3-[2,2-dimethyl-7-(trifluomethyl)-3H-1,4-benzoxazin-4-yl]phenyl]azetidine-3-carboxylate], at NURR-1/RXRα, the Emax came out at 117% and the EC50 was determined as 0.004 µM. On NURR-1/RXRγ, the Emax is 124% and the EC50 was determined as 0.004 µM.

The values are drawn from patent US20170066717A1, “NEW PHENYLAZETIDINECARBOXYLATE OR -CARBOXAMIDE COMPOUNDS” (INVENTIVA, priority 2014, published 2017).
